Test results from patent publication US8350062B2, “Synthesis and anticancer activity of new actin-targeting small-molecule agents” (priority 2009, dated 2013).

Key:
[1] = Single dose i.p. toxicity in mice; assay type: in vivo; conditions: daily weight and behavior
Description: Initially, we established that 10 had no observed toxicity in mice up to 50 mg/kg a single dose administered i.p. Toxicity was assessed by daily weight measurements and mouse behavior compared to non-injected mice. Next, we established tumor xenografts by injecting A549 cells subcutaneously into two groups of nude athymic mice (6 animals per group). The first group was injected only with DMSO control. The second group of animals received three i.p. doses of analog 10 (20 mg/kg) on the 3rd, 5th and 7th day after the initial tumor challenge. Tumor growth was monitored over a period of five weeks. The tumor grew rapidly in the control mice population and reached an average size of 731 mm^3 at the end of 4 weeks. […] The average tumor size for this population was 308 mm^3 after 4 weeks.

NCI-H522 = experiment: NCI 60 cell line single dose screen; assay type: cell-based, human; conditions: NCI-H522 (Non-Small Cell Lung Cancer), 10 micromolar, 48 h
Method in brief: (§1)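 10 uM single dose; 48 h exposure, 37° C, 5% CO2; RPMI 1640/5% FBS. TCA fix, SRB stain, A515. % growth from Tz, C, Ti.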

SR = experiment: NCI 60 cell line single dose screen; assay type: cell-based, human; conditions: SR (Leukemia), 10 micromolar, 48 h
Method in brief: as §1

TK-10 = experiment: NCI 60 cell line single dose screen; assay type: cell-based, human; conditions: TK-10 (Renal Cancer), 10 micromolar, 48 h
Method in brief: as §1

M14 = experiment: NCI 60 cell line single dose screen; assay type: cell-based, human; conditions: M14 (Melanoma), 10 micromolar, 48 h
Method in brief: as §1

A549/ATCC = experiment: NCI 60 cell line single dose screen; assay type: cell-based, human; conditions: A549/ATCC (Non-Small Cell Lung Cancer), 10 micromolar, 48 h
Method in brief: as §1

NCI-H322M = experiment: NCI 60 cell line single dose screen; assay type: cell-based, human; conditions: NCI-H322M (Non-Small Cell Lung Cancer), 10 micromolar, 48 h
Method in brief: as §1

UACC-257 = experiment: NCI 60 cell line single dose screen; assay type: cell-based, human; conditions: UACC-257 (Melanoma), 10 micromolar, 48 h
Method in brief: as §1

BT-549 = experiment: NCI 60 cell line single dose screen; assay type: cell-based, human; conditions: BT-549 (Breast Cancer), 10 micromolar, 48 h
Method in brief: as §1

CAKI-1 = experiment: NCI 60 cell line single dose screen; assay type: cell-based, human; conditions: CAKI-1 (Renal Cancer), 10 micromolar, 48 h
Method in brief: as §1

SN12C = experiment: NCI 60 cell line single dose screen; assay type: cell-based, human; conditions: SN12C (Renal Cancer), 10 micromolar, 48 h
Method in brief: as §1

A549 cells = experiment: Cell viability assay (CellTiter-Glo), growth inhibition of A549 cells; assay type: cell-based, human; conditions: 24-96 h
Description: Cell Viability Assays. All assays were performed using at least three replicate wells for each concentration tested. Original 10-25 mM DMSO stock solution of bistramide A or its analogs was diluted to 100 μM for analogs 4-8, 10 μM for analog 3, 5 μM for analog 2 and 1 μM for bistramide A (1) with F-12K cell culture media supplemented with 10% fetal bovine serum, 100 I.U./ml penicillin, 100 μg/ml streptomycin and 2 mM L-glutamine. Two-fold serial dilutions were performed and used for cell-based assays. A549 cells were grown in 96-well white plates at the density of 1,000 cells per well in 100 μl F-12K cell culture media. Cells were allowed to attach over 24 h and treated with 30 μl of the drug solution and incubated further for 48 h. After incubation, cell viability was determined using luminescence-based commercial kit (CellTiter-Glo, Promega) and luminescence measured using a Wallac Victor 3 plate reader. To measure cell growth inhibition, viability assays were performed twice: at initial time point T0 and after 48 h incubation (T48). Change in the number of viable cells was measured, and GI50 was calculated from sigmoidal plots. For analog 10, growth of A549 and PC3 cells was monitored over 96 h following addition of the drug. 100 μM was the highest concentration tested. At no point did the total DMSO conc. exceed 1%.

COCCC(=O)NC[C@H](O)[C@H](C)C(=O)NCCC[C@H]1O[C@@]2(CCC[C@@H](CC[C@H](C)/C=C(\C)[C@H](C)O)O2)CCC1C (stereo partly drawn) [Analog 10]
dose with no observed toxicity [1]: up to 50 mg/kg | Growth Percent (NCI-H522): 32.60% | Growth Percent (SR): 40.40% | Growth Percent (TK-10): 30.01% | Growth Percent (M14): 71.74% | Growth Percent (A549/ATCC): 44.50% | Growth Percent (NCI-H322M): 113.58% | Growth Percent (UACC-257): 72.55% | Growth Percent (BT-549): 29.35% | Growth Percent (CAKI-1): −37.52% | Growth Percent (SN12C): 57.59% | concentration giving complete growth inhibition (A549 cells): 5 µM
